In PubChem BioAssay (NCI) one finds TGI data, which are given here for 16 compounds.

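96-well plates; 48 h exposure; 5 concentrations. Endpoints by linear interpolation between flanking doses. Not reached: highest tested concentration assigned. TGI denotes the concentration required for complete inhibition of growth.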 Where a SMILES comes first, the peptide text is derived from it. The star is where a group is joined. Cbz = O=C(OCc1ccccc1)*; OBn = c1ccc(CO*)cc1

The test system of one experiment is SK-MEL-2 melanoma. The experiment can be described thus: NCI tumour cell line growth inhibition, 48 h.
With `COC(=O)[C@H](Cc1ccccc1)NC(=O)NCCN(CCNC(=O)N[C@@H](Cc1ccccc1)C(=O)OC)C(=O)N[C@@H](Cc1ccccc1)C(=O)OC`, the TGI came to 42.5 µM.

With `Cc1occc1C(=S)Nc1ccc(Cl)c(C(=O)OCC(F)(F)F)c1`, the TGI came to 44.9 µM.

In the case of `O=C(O)C1CC2C3CCC2C1C3=O` (configuration not stated), the TGI was over 100 µM.

`CC(C)c1ccccc1SC1CC(=O)CC(Sc2ccccc2C(C)C)C12O[C@H](c1ccccc1)[C@@H](c1ccccc1)O2` (some centres not stated) displayed a TGI of over 100 µM.

Compound `CSC1=N[C@H](c2ccccc2)CS1` had a TGI of over 100 µM.

Consider `CCOC(=O)/C(C)=C\[C@@]1(C)O[C@@H](C)[C@@](C)(OC(C)=O)[C@@H]1OC(C)=O`, for which the TGI was over 100 µM.

`COc1ccc(/C=C2/C(C)=NN(c3cccc(Cl)c3)/C2=N/c2nc3ccccc3s2)cc1` gave a TGI of 41.8 µM.

Regarding `CSc1nc2ccccc2c(=O)n1/N=C1\C(=O)N(CN2CCCCC2)c2ccc(Cl)cc21`, the TGI is 54.6 µM.

A further experiment deals with NCI-H23 lung. Nature of the experiment: NCI tumour cell line growth inhibition, 48 h.
In turn, `COC(=O)CNC(=O)C(C)NC(=O)C(CC(=O)OCc1ccccc1)NC(=O)OCc1ccccc1` (stereo not drawn) (Cbz-Asp(OBn)-Ala-Gly-OMe; configuration not given here) showed a TGI of over 100 µM.

`COC(=O)N1C[C@@]2(C=CC3(CC2)OCCO3)c2ccccc21` had a TGI of over 100 µM.

In turn, `N#CC1(C#N)C2CCCCC23OC(=N)C1(C#N)C(c1ccco1)O3` (configuration not stated) displayed a TGI of 70.5 µM.

As to `CC1C2CC(CC(=O)N2)C1(C)C` (configuration not stated), the TGI is over 100 µM.

In turn, `CCOC(=O)/C(O)=C(/C=N\C(=S)Nc1ccccc1Cl)C(=O)OCC` registered a TGI of over 100 µM.

As for `O=C(NC(C(F)(F)F)(C(F)(F)F)P(=O)(c1ccccc1)c1ccccc1)C(C(F)(F)F)C(F)(F)F`, the TGI came out at 64.2 µM.

`COC(=O)[C@H](Cc1ccccc1)NC(=O)NCCN(CCNC(=O)N[C@@H](Cc1ccccc1)C(=O)OC)C(=O)N[C@@H](Cc1ccccc1)C(=O)OC` came in with a TGI of 36.1 µM.

Take `COc1cc2c(cc1OC)-c1[nH]c3ccc(C#N)cc3c1CC(=O)N2`: the TGI is over 100 µM.

`Cn1nc(Cc2ccc(Cl)cc2)n(N)c1=O` registered a TGI of over 100 µM.

In turn, `Cc1occc1C(=S)Nc1ccc(Cl)c(C(=O)OCC(F)(F)F)c1` had a TGI of 51.4 µM.

As for `O=C(O)C1CC2C3CCC2C1C3=O` (configuration not stated), the TGI is over 100 µM.

`CC(C)c1ccccc1SC1CC(=O)CC(Sc2ccccc2C(C)C)C12O[C@H](c1ccccc1)[C@@H](c1ccccc1)O2` (some centres not stated) showed a TGI of over 100 µM.

For the compound `CSC1=N[C@H](c2ccccc2)CS1`, the TGI was over 100 µM.

Consider `CCOC(=O)/C(C)=C\[C@@]1(C)O[C@@H](C)[C@@](C)(OC(C)=O)[C@@H]1OC(C)=O`, for which the TGI was 77.1 µM.

For the compound `COc1ccc(/C=C2/C(C)=NN(c3cccc(Cl)c3)/C2=N/c2nc3ccccc3s2)cc1`, the TGI turned out to be 34.6 µM.

For the compound `CSc1nc2ccccc2c(=O)n1/N=C1\C(=O)N(CN2CCCCC2)c2ccc(Cl)cc21`, the TGI was over 100 µM.

Another experiment deals with HOP-62 NSCLC. The experiment can be described thus: NCI tumour cell line growth inhibition, 48 h.
`COC(=O)CNC(=O)C(C)NC(=O)C(CC(=O)OCc1ccccc1)NC(=O)OCc1ccccc1` (stereo not drawn) (Cbz-Asp(OBn)-Ala-Gly-OMe; configuration not given here) had a TGI of over 100 µM.

For `COC(=O)N1C[C@@]2(C=CC3(CC2)OCCO3)c2ccccc21`, the TGI is over 100 µM.

Turning to `CC1C2CC(CC(=O)N2)C1(C)C` (configuration not stated), the TGI is over 100 µM.

In the case of `CCOC(=O)/C(O)=C(/C=N\C(=S)Nc1ccccc1Cl)C(=O)OCC`, the TGI is over 100 µM.

In the case of `O=C(NC(C(F)(F)F)(C(F)(F)F)P(=O)(c1ccccc1)c1ccccc1)C(C(F)(F)F)C(F)(F)F`, the TGI is over 100 µM.

In turn, `COC(=O)[C@H](Cc1ccccc1)NC(=O)NCCN(CCNC(=O)N[C@@H](Cc1ccccc1)C(=O)OC)C(=O)N[C@@H](Cc1ccccc1)C(=O)OC` displayed a TGI of 39.8 µM.

Consider `COc1cc2c(cc1OC)-c1[nH]c3ccc(C#N)cc3c1CC(=O)N2`, for which the TGI is over 100 µM.

`O=C(O)C1CC2C3CCC2C1C3=O` (configuration not stated): the TGI is over 100 µM.

For the compound `CC(C)c1ccccc1SC1CC(=O)CC(Sc2ccccc2C(C)C)C12O[C@H](c1ccccc1)[C@@H](c1ccccc1)O2` (some centres not stated), the TGI is over 100 µM.

The compound `CSC1=N[C@H](c2ccccc2)CS1` came in with a TGI of over 100 µM.

`CCOC(=O)/C(C)=C\[C@@]1(C)O[C@@H](C)[C@@](C)(OC(C)=O)[C@@H]1OC(C)=O` gave a TGI of over 100 µM.

For the compound `COc1ccc(/C=C2/C(C)=NN(c3cccc(Cl)c3)/C2=N/c2nc3ccccc3s2)cc1`, the TGI is 47.2 µM.

In the case of `CSc1nc2ccccc2c(=O)n1/N=C1\C(=O)N(CN2CCCCC2)c2ccc(Cl)cc21`, the TGI is over 100 µM.

For the next experiment, the system named is HCT-116 colon. The experiment can be described thus: NCI tumour cell line growth inhibition, 48 h.
`COC(=O)CNC(=O)C(C)NC(=O)C(CC(=O)OCc1ccccc1)NC(=O)OCc1ccccc1` (stereo not drawn) (Cbz-Asp(OBn)-Ala-Gly-OMe; configuration not given here) displayed a TGI of over 100 µM.

Take `COC(=O)N1C[C@@]2(C=CC3(CC2)OCCO3)c2ccccc21`: the TGI was over 100 µM.

`N#CC1(C#N)C2CCCCC23OC(=N)C1(C#N)C(c1ccco1)O3` (configuration not stated) came in with a TGI of 38.5 µM.

Compound `CC1C2CC(CC(=O)N2)C1(C)C` (configuration not stated) returned a TGI of over 100 µM.

`CCOC(=O)/C(O)=C(/C=N\C(=S)Nc1ccccc1Cl)C(=O)OCC` showed a TGI of over 100 µM.

Take `O=C(NC(C(F)(F)F)(C(F)(F)F)P(=O)(c1ccccc1)c1ccccc1)C(C(F)(F)F)C(F)(F)F`: the TGI was found to be 39.1 µM.

For `COC(=O)[C@H](Cc1ccccc1)NC(=O)NCCN(CCNC(=O)N[C@@H](Cc1ccccc1)C(=O)OC)C(=O)N[C@@H](Cc1ccccc1)C(=O)OC`, the TGI is 35.8 µM.

As to `Cn1nc(Cc2ccc(Cl)cc2)n(N)c1=O`, the TGI is over 100 µM.

The compound `Cc1occc1C(=S)Nc1ccc(Cl)c(C(=O)OCC(F)(F)F)c1` had a TGI of 33.1 µM.

The compound `O=C(O)C1CC2C3CCC2C1C3=O` (configuration not stated) came in with a TGI of over 100 µM.

The compound `CC(C)c1ccccc1SC1CC(=O)CC(Sc2ccccc2C(C)C)C12O[C@H](c1ccccc1)[C@@H](c1ccccc1)O2` (some centres not stated) registered a TGI of over 100 µM.

As for `CSC1=N[C@H](c2ccccc2)CS1`, the TGI was over 100 µM.

In turn, `CCOC(=O)/C(C)=C\[C@@]1(C)O[C@@H](C)[C@@](C)(OC(C)=O)[C@@H]1OC(C)=O` returned a TGI of over 100 µM.

Compound `COc1ccc(/C=C2/C(C)=NN(c3cccc(Cl)c3)/C2=N/c2nc3ccccc3s2)cc1` yielded a TGI of 33.9 µM.

With `CSc1nc2ccccc2c(=O)n1/N=C1\C(=O)N(CN2CCCCC2)c2ccc(Cl)cc21`, the TGI was over 100 µM.

In a further experiment the test system is SR leukemia. Nature of the experiment: NCI tumour cell line growth inhibition, 48 h.
For the compound `COC(=O)CNC(=O)C(C)NC(=O)C(CC(=O)OCc1ccccc1)NC(=O)OCc1ccccc1` (stereo not drawn) (Cbz-Asp(OBn)-Ala-Gly-OMe; configuration not given here), the TGI was over 100 µM.

With `COC(=O)N1C[C@@]2(C=CC3(CC2)OCCO3)c2ccccc21`, the TGI is over 100 µM.

In turn, `CCOC(=O)/C(O)=C(/C=N\C(=S)Nc1ccccc1Cl)C(=O)OCC` gave a TGI of over 100 µM.

In turn, `O=C(O)C1CC2C3CCC2C1C3=O` (configuration not stated) showed a TGI of over 100 µM.

In the case of `CCOC(=O)/C(C)=C\[C@@]1(C)O[C@@H](C)[C@@](C)(OC(C)=O)[C@@H]1OC(C)=O`, the TGI was over 100 µM.

On to `COc1ccc(/C=C2/C(C)=NN(c3cccc(Cl)c3)/C2=N/c2nc3ccccc3s2)cc1`, for which the TGI came out at 62.6 µM.

Another experiment concerns A498 renal. The experiment can be described thus: NCI tumour cell line growth inhibition, 48 h.
In turn, `COC(=O)N1C[C@@]2(C=CC3(CC2)OCCO3)c2ccccc21` yielded a TGI of over 100 µM.

`N#CC1(C#N)C2CCCCC23OC(=N)C1(C#N)C(c1ccco1)O3` (configuration not stated): the TGI worked out at 57.7 µM.

Take `CC1C2CC(CC(=O)N2)C1(C)C` (configuration not stated): the TGI was over 100 µM.

`CCOC(=O)/C(O)=C(/C=N\C(=S)Nc1ccccc1Cl)C(=O)OCC` had a TGI of over 100 µM.

Turning to `O=C(NC(C(F)(F)F)(C(F)(F)F)P(=O)(c1ccccc1)c1ccccc1)C(C(F)(F)F)C(F)(F)F`, the TGI was over 100 µM.

With `COC(=O)[C@H](Cc1ccccc1)NC(=O)NCCN(CCNC(=O)N[C@@H](Cc1ccccc1)C(=O)OC)C(=O)N[C@@H](Cc1ccccc1)C(=O)OC`, the TGI is over 82.7 µM.

For `COc1cc2c(cc1OC)-c1[nH]c3ccc(C#N)cc3c1CC(=O)N2`, the TGI was over 100 µM.

Compound `Cn1nc(Cc2ccc(Cl)cc2)n(N)c1=O` showed a TGI of over 100 µM.

Take `Cc1occc1C(=S)Nc1ccc(Cl)c(C(=O)OCC(F)(F)F)c1`: the TGI amounted to 30.5 µM.
